From patent US12708630B2, “Combined therapy of 4′-thio-5-aza-2′-deoxycytidine and Venetoclax” (PINOTBIO, INC., priority 2021, dated 2026)
pIC50: −log10 of the molar value.

Assays:
Assay in all cases: drug activity profiling cytotoxicity
Format in all cases: cell-based
[1] = system: 639-V; settings: Homo sapiens; 639-V cell line, Bladder; read-out: Aza-T-dCyd IC50
Summary of the method: (§1)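 First, 200 cell lines were profiled for sensitivity to Aza-T-dCyd by cytotoxicity; then responses were analysed together with genomic features.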

[2] = system: A7; settings: A7 cell line, Skin (Melanoma); read-out: Aza-T-dCyd IC50
Summary of the method: as §1

[3] = system: AsPC-1; settings: Homo sapiens, ASPC1; AsPC-1 cell line, Pancreas; read-out: Aza-T-dCyd IC50
Summary of the method: as §1

[4] = system: CA46; settings: Homo sapiens; CA46 cell line, Burkitt's lymphoma; read-out: Aza-T-dCyd IC50
Summary of the method: as §1

[5] = system: D283 Med; settings: Homo sapiens; D283 Med cell line, CNS (Medulloblastoma); read-out: Aza-T-dCyd IC50
Summary of the method: as §1

[6] = system: DMS114; settings: Homo sapiens, DMS-114; DMS114 cell line, Lung (SCLC); read-out: Aza-T-dCyd IC50
Summary of the method: as §1

[7] = system: G-361; settings: Homo sapiens; G-361 cell line, Skin (Melanoma); read-out: Aza-T-dCyd IC50
Summary of the method: as §1

[8] = system: HCT-116; settings: Homo sapiens; HCT-116 cell line, Colon; read-out: Aza-T-dCyd IC50
Summary of the method: as §1

[9] = system: HL-60; settings: Homo sapiens; HL-60 cell line, AML; read-out: Aza-T-dCyd IC50
Summary of the method: as §1

[10] = system: HT1376; settings: Homo sapiens, HT-1376; HT1376 cell line, Bladder; read-out: Aza-T-dCyd IC50
Summary of the method: as §1

[11] = system: HuCCT1; settings: Homo sapiens, HuCCT-1; HuCCT1 cell line, Liver; read-out: Aza-T-dCyd IC50
Summary of the method: as §1

[12] = system: J-RT3-T3-5; settings: Homo sapiens; J-RT3-T3-5 cell line, T-cell Lymphoma; read-out: Aza-T-dCyd IC50
Summary of the method: as §1

[13] = system: JAR; settings: JAR cell line, Placenta; read-out: Aza-T-dCyd IC50
Summary of the method: as §1

[14] = system: MC116; settings: Homo sapiens; MC116 cell line, B-cell lymphoma; read-out: Aza-T-dCyd IC50
Summary of the method: as §1

[15] = system: MDA MB 453; settings: Homo sapiens; MDA MB 453 cell line, Breast; read-out: Aza-T-dCyd IC50
Summary of the method: as §1

[16] = system: Mia PaCa-2; settings: Homo sapiens; Mia PaCa-2 cell line, Pancreas; read-out: Aza-T-dCyd IC50
Summary of the method: as §1

[17] = system: NALM-6; settings: Homo sapiens; NALM-6 cell line, ALL; read-out: Aza-T-dCyd IC50
Summary of the method: as §1

[18] = system: NAMALWA; settings: NAMALWA cell line, Burkitt's lymphoma; read-out: Aza-T-dCyd IC50
Summary of the method: as §1

[19] = system: PC-3; settings: Homo sapiens; PC-3 cell line, Prostate; read-out: Aza-T-dCyd IC50
Summary of the method: as §1

[20] = system: RL95-2; settings: Homo sapiens; RL95-2 cell line, Female GU (Uterus); read-out: Aza-T-dCyd IC50
Summary of the method: as §1

[21] = system: RPMI 6666; settings: Homo sapiens; RPMI 6666 cell line, Hodgkin's lymphoma; read-out: Aza-T-dCyd IC50
Summary of the method: as §1

[22] = system: SCC-25; settings: Homo sapiens; SCC-25 cell line, Head and Neck; read-out: Aza-T-dCyd IC50
Summary of the method: as §1

[23] = system: SK-MEL-3; settings: Homo sapiens, SK-MEL3; SK-MEL-3 cell line, Skin (Melanoma); read-out: Aza-T-dCyd IC50
Summary of the method: as §1

[24] = system: SK-NEP-1; settings: Homo sapiens; SK-NEP-1 cell line, Kidney; read-out: Aza-T-dCyd IC50
Summary of the method: as §1

[25] = system: SW900; settings: Homo sapiens; SW900 cell line, Lung (NSCLC); read-out: Aza-T-dCyd IC50
Summary of the method: as §1

[26] = system: T24; settings: Homo sapiens, T-24; T24 cell line, Bladder; read-out: Aza-T-dCyd IC50
Summary of the method: as §1

[27] = system: T98G; settings: Homo sapiens; T98G cell line, CNS (Glioma); read-out: Aza-T-dCyd IC50
Summary of the method: as §1

[28] = system: TCCSUP; settings: Homo sapiens, TCC-SUP; TCCSUP cell line, Bladder; read-out: Aza-T-dCyd IC50
Summary of the method: as §1

[29] = system: TT; settings: Homo sapiens; TT cell line, Endocrine (Thyroid); read-out: Aza-T-dCyd IC50
Summary of the method: as §1

[30] = system: WM-266-4; settings: Homo sapiens; WM-266-4 cell line, Skin (Melanoma); read-out: Aza-T-dCyd IC50
Summary of the method: as §1

Work on `Nc1ncn([C@H]2CC(O)[C@@H](CO)S2)c(=O)n1` (stereo partly drawn) [Aza-T-dCyd, 4′-thio-5-aza-2′-deoxycytidine] yielded a pIC50 [1] of 5.80, a pIC50 [2] of 5.92 and a pIC50 [3] of 5.67. For the same compound, the pIC50 [4] was 7.59, the pIC50 [5] was 7.16 and the pIC50 [6] was 5.66. The pIC50 [7] was 5.97, the pIC50 [8] was 7.00 and the pIC50 [9] was 6.29. The pIC50 [10] was 5.48, the pIC50 [11] was 6.98 and the pIC50 [12] was 6.97. For the same compound, the pIC50 [13] was 6.53, the pIC50 [14] was 7.53 and the pIC50 [15] was 5.72. The pIC50 [16] was 6.06, the pIC50 [17] was 7.47 and the pIC50 [18] was 7.96. For the same compound, the pIC50 [19] was 6.36, the pIC50 [20] was 6.15 and the pIC50 [21] was 5.98. For the same compound, the pIC50 [22] was 6.90, the pIC50 [23] was 6.28 and the pIC50 [24] was < 5.00. It also gave a pIC50 [25] of 5.70, a pIC50 [26] of 5.82 and a pIC50 [27] of 5.86. The pIC50 [28] was 5.93, the pIC50 [29] was < 5.00 and the pIC50 [30] was 6.37.
